Data reported in PubChem BioAssay AID248 (DTP/NCI, 2004).
“And” between values parts separate entries of the source, which are not always exact repeats. Equal entries are not always repeated. Inconclusive results and toxic doses are left out. Cut-off read from the data, not from the text of the source: active = T/C of 150% or more; inactive = T/C below 125%.

Test system: L1210 leukemia ip in BDF1 mice, survival T/C
Assay: NCI In Vivo Anticancer Drug Screen. Data for tumor model L1210 Leukemia (intraperitoneal) in B6D2F1 (BDF1) mice
Settings: endpoint: mean survival time, higher = longer survival
In short: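 Survival endpoint. Drug-treated group vs vehicle group, expressed as T divided by C. Tumor passaged by transplantation.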

[1] = dose: 100.0 mg/kg/injection, schedule: Q04DX003 (ip), vehicle: Klucel (hydroxypropylcellulose) (HPC)
[2] = dose: 200.0 mg/kg/injection, schedule: Q04DX003 (ip), vehicle: Klucel (hydroxypropylcellulose) (HPC)
[3] = dose: 400.0 mg/kg/injection, schedule: Q04DX003 (ip), vehicle: Klucel (hydroxypropylcellulose) (HPC)
[4] = dose: 100.0 mg/kg/injection, schedule: Q04DX003 (ip), vehicle: saline
[5] = dose: 100.0 mg/kg/injection, schedule: Q01DX009 (ip), vehicle: saline with Tween-80
[6] = dose: 100.0 mg/kg/injection, schedule: Q01DX001 (ip), vehicle: carboxymethylcellulose (CMC)
[7] = dose: 100.0 mg/kg/injection, schedule: Q04DX003 (ip), vehicle: saline with Tween-80
[8] = dose: 200.0 mg/kg/injection, schedule: Q01DX001 (ip), vehicle: carboxymethylcellulose (CMC)
[9] = dose: 200.0 mg/kg/injection, schedule: Q04DX003 (ip), vehicle: saline with Tween-80
[10] = dose: 400.0 mg/kg/injection, schedule: Q01DX001 (ip), vehicle: carboxymethylcellulose (CMC)
[11] = dose: 400.0 mg/kg/injection, schedule: Q04DX003 (ip), vehicle: saline with Tween-80
[12] = dose: 100.0 mg/kg/injection, schedule: Q01DX009 (ip), vehicle: Klucel (hydroxypropylcellulose) (HPC)
[13] = dose: 200.0 mg/kg/injection, schedule: Q01DX009 (ip), vehicle: Klucel (hydroxypropylcellulose) (HPC)
[14] = dose: 400.0 mg/kg/injection, schedule: Q01DX009 (ip), vehicle: Klucel (hydroxypropylcellulose) (HPC)
[15] = dose: 25.0 mg/kg/injection, schedule: Q04DX003 (ip), vehicle: saline
[16] = dose: 50.0 mg/kg/injection, schedule: Q04DX003 (ip), vehicle: saline
[17] = dose: 100.0 mg/kg/injection, schedule: Q01DX001 (ip), vehicle: saline

Measured: T/C

CCOC(=O)CCc1cc(C)[nH]c1C(=O)OCC
inactive: dose: 100.0 mg/kg/injection, schedule: Q01DX001 (ip), vehicle: Klucel (hydroxypropylcellulose) (HPC) 93 % of control | [1] 101 % of control | dose: 200.0 mg/kg/injection, schedule: Q01DX001 (ip), vehicle: Klucel (hydroxypropylcellulose) (HPC) 93 % of control | [2] 96 % of control | dose: 400.0 mg/kg/injection, schedule: Q01DX001 (ip), vehicle: Klucel (hydroxypropylcellulose) (HPC) 101 % of control | [3] 98 % of control

CC(=O)NCCOc1ccc(N)cc1Cl
inactive: [4] 94 % of control | dose: 200.0 mg/kg/injection, schedule: Q04DX003 (ip), vehicle: saline 92 % of control | dose: 400.0 mg/kg/injection, schedule: Q04DX003 (ip), vehicle: saline 91 % of control

COCc1c(C)[nH]c2ccc(N(C)C)cc2c1=O
inactive: [5] 97 % of control | dose: 200.0 mg/kg/injection, schedule: Q01DX009 (ip), vehicle: saline with Tween-80 103 % of control | dose: 400.0 mg/kg/injection, schedule: Q01DX009 (ip), vehicle: saline with Tween-80 105 % of control

COC1c2c(nc3ccccc3c2C(=O)O)-c2ccccc2C1(C)C (stereo not drawn)
inactive: [1] 104 % of control | [2] 104 % of control | [3] 106 % of control

CC1C2C=CC(C2)C1C(=O)O (stereo not drawn)
inactive: [6] 98 % of control | [7] 96 % of control and 97 % of control and 88 % of control | [8] 96 % of control | [9] 89 % of control and 92 % of control and 91 % of control | [10] 96 % of control | [11] 99 % of control and 97 % of control

Nc1nnc(SCc2ccccc2)s1
inactive: [12] 92 % of control | [13] 105 % of control | [14] 97 % of control

CNCCOc1ccccc1
inactive: dose: 50.0 mg/kg/injection, schedule: Q01DX009 (ip), vehicle: saline with Tween-80 105 % of control | [5] 101 % of control | [7] 107 % of control | [9] 93 % of control

CCOC(=O)C(c1ccccc1)(c1ccccc1)c1ccccc1
inactive: dose: 6.25 mg/kg/injection, schedule: Q01DX009 (ip), vehicle: Klucel (hydroxypropylcellulose) (HPC) 90 % of control | dose: 12.5 mg/kg/injection, schedule: Q01DX009 (ip), vehicle: Klucel (hydroxypropylcellulose) (HPC) 92 % of control | dose: 25.0 mg/kg/injection, schedule: Q01DX009 (ip), vehicle: Klucel (hydroxypropylcellulose) (HPC) 95 % of control

S=C(NCc1ccccc1)[S][Sn]([c]1ccccc1)([c]1ccccc1)[c]1ccccc1
inactive: dose: 5.0 mg/kg/injection, schedule: Q01DX001 (ip), vehicle: steriod suspending solution 101 % of control | dose: 10.0 mg/kg/injection, schedule: Q01DX001 (ip), vehicle: steriod suspending solution 103 % of control | dose: 20.0 mg/kg/injection, schedule: Q01DX001 (ip), vehicle: steriod suspending solution 93 % of control | dose: 40.0 mg/kg/injection, schedule: Q01DX001 (ip), vehicle: steriod suspending solution 113 % of control | dose: 80.0 mg/kg/injection, schedule: Q01DX001 (ip), vehicle: steriod suspending solution 104 % of control

CCC1(C)N=C(N)N=C(N)N1c1ccc(Cl)c(Cl)c1 (stereo not drawn)
inactive: dose: 37.5 mg/kg/injection, schedule: Q04DX003 (ip), vehicle: saline 111 % of control | dose: 75.0 mg/kg/injection, schedule: Q01DX001 (ip), vehicle: saline 103 % of control | dose: 75.0 mg/kg/injection, schedule: Q04DX003 (ip), vehicle: saline 111 % of control | dose: 150.0 mg/kg/injection, schedule: Q01DX001 (ip), vehicle: saline 101 % of control | dose: 150.0 mg/kg/injection, schedule: Q04DX003 (ip), vehicle: saline 105 % of control

CC(=O)c1cccc(NC(=O)Oc2ccc3c(C)cc(=O)oc3c2)c1
inactive: [12] 98 % of control | [13] 101 % of control | [14] 101 % of control

CCN(CC)C(=O)N1C2CCC1CN(C)C2
inactive: dose: 12.5 mg/kg/injection, schedule: Q01DX009 (ip), vehicle: saline 91 % of control | dose: 12.5 mg/kg/injection, schedule: Q04DX003 (ip), vehicle: saline 103 % of control | dose: 25.0 mg/kg/injection, schedule: Q01DX009 (ip), vehicle: saline 95 % of control | [15] 105 % of control | dose: 50.0 mg/kg/injection, schedule: Q01DX009 (ip), vehicle: saline 86 % of control | [16] 89 % of control

CN=C(N)N(C)NCc1ccccc1
inactive: [15] 100 % of control | [16] 109 % of control | [17] 97 % of control | [4] 105 % of control

C[CH2][Ge]([CH2]C)[O][Ge]([CH2]C)[CH2]C
inactive: dose: 5.0 mg/kg/injection, schedule: Q04DX002 (ip), vehicle: saline with Tween-80 95 % of control | dose: 10.0 mg/kg/injection, schedule: Q04DX002 (ip), vehicle: saline with Tween-80 100 % of control | dose: 20.0 mg/kg/injection, schedule: Q04DX002 (ip), vehicle: saline with Tween-80 95 % of control

CN(CC#N)c1ncnc(Cl)c1[N+](=O)[O-]
inactive: dose: 50.0 mg/kg/injection, schedule: Q01DX001 (ip), vehicle: carboxymethylcellulose (CMC) 95 % of control | [6] 98 % of control | [8] 88 % of control | [10] 98 % of control

O=c1oc2ccccc2c2c1C(c1ccccc1)C=C(c1ccccc1)O2 (stereo not drawn)
inactive: [7] 89 % of control | [9] 91 % of control | [11] 92 % of control

CCN(CC)Cc1ccccc1COC(=O)c1ccc([N+](=O)[O-])cc1
inactive: dose: 100.0 mg/kg/injection, schedule: Q04DX002 (ip), vehicle: Klucel (hydroxypropylcellulose) (HPC) 97 % of control | dose: 200.0 mg/kg/injection, schedule: Q04DX002 (ip), vehicle: Klucel (hydroxypropylcellulose) (HPC) 94 % of control | dose: 400.0 mg/kg/injection, schedule: Q04DX002 (ip), vehicle: Klucel (hydroxypropylcellulose) (HPC) 101 % of control

CCOC(=O)NCC(CCN1CCCC1)(CCN1CCCC1)c1cccc2ccccc12
inactive: dose: 25.0 mg/kg/injection, schedule: Q04DX002 (ip), vehicle: saline 101 % of control | dose: 50.0 mg/kg/injection, schedule: Q04DX002 (ip), vehicle: saline 93 % of control

COC(=O)C1(C)COP(=O)(O)OC1 (stereo not drawn)
inactive: [17] 91 % of control and 103 % of control | dose: 200.0 mg/kg/injection, schedule: Q01DX001 (ip), vehicle: saline 89 % of control and 100 % of control | dose: 400.0 mg/kg/injection, schedule: Q01DX001 (ip), vehicle: saline 97 % of control

CC1=CC(=O)N(C2=CC(=O)C=CC2=O)/C1=C/C#N
inactive: dose: 12.5 mg/kg/injection, schedule: Q01DX001 (ip), vehicle: Klucel (hydroxypropylcellulose) (HPC) 97 % of control | dose: 25.0 mg/kg/injection, schedule: Q01DX001 (ip), vehicle: Klucel (hydroxypropylcellulose) (HPC) 88 % of control | dose: 50.0 mg/kg/injection, schedule: Q01DX001 (ip), vehicle: Klucel (hydroxypropylcellulose) (HPC) 93 % of control and 89 % of control

O=C(NOC(=O)c1ccco1)c1ccccc1
inactive: [1] 97 % of control | [2] 113 % of control | [3] 104 % of control
